Results on 2 compounds are retold here after patent publication US7838608B2, “Fluorinated surfactants for making fluoropolymers” (3M Innovative Properties Company, priority 2005, dated 2010).

SMILES strings stand for the structures.

A short description of this series: Determination of bio-accumulation: urinary clearance pharmacokinetic study in rats. The settings on record: oral gavage, 73 micro Moles per kg body weight.

Procedure: Determination of Bio-Accumulation
The fluorinated surfactants were evaluated for urinary clearance using a pharmacokinetic study in rats. The goal was to measure the total amount of parent compound eliminated via urinary output and estimate the rate of elimination.
The study utilized male Sprague Dawley rats, 6 to 8 weeks of age, and approximately 200 to 250 g body weight at study onset. The test compounds of table 2 were administered at a dose of 73 micro Moles per kg body weight in rats (N=3 animals per tested compound). All test compounds were prepared in sterile deionized water and given to rats via oral gavage. After test compounds administration, the rats were housed individually in metabolism cages for urine collection: 0 to 6 hours, 6 to 24 hours, 24 to 48 hours and 72 to 96 hours. Animals were observed throughout the study for clinical signs of toxicity. Gross necropsy was performed at the termination of each study (96 hours post-dose) with sera and liver samples being retained from each animal.
The concentration of the parent compound or metabolites thereof were quantitatively measured via fluorine NMR on each urine sample for each animal at each time point based on internally added standards.
T1/2 is the renal half-life and is the time required for the amount of a particular substance in a biological system to be reduced to one half of its value by biological processes when the rate of removal is approximately exponential. In these examples the value of T1/2 is calculated by exponential least squares curve fitting (y=Ae^Bx and T1/2=0.693/B) where y represents the concentration of analyte in urine and x represents time in hours.

On to `N.O=C(O)C(F)(F)C(F)(F)C(F)(F)C(F)(F)C(F)(F)C(F)(F)C(F)(F)F` [APFO, ammonium perfluorooctanoic acid, reference compound], for which, under “clinical signs of toxicity and gross necropsy at 96 hours post-dose”, the “Compound-related Effects” value is “Hepatomegaly”. As to `N.O=C(O)C(F)OC(F)(F)C(F)(F)C(F)(F)OC(F)(F)F` (stereo not drawn) [Compound 3, CF3—O—CF2—CF2—CF2—O—CHF—COONH4], the “% Recovery (96 h)” value (recovery in urine after 96 h) is reported as 95%. Further, where the note is “urine measured by fluorine NMR, exponential least squares curve fitting”, the “T½ (renal elimination half-life)” value came to 11 h.
